Legend:
Assay type in all cases: in vivo
Settings in all cases: foliar, compared to untreated control leaf disks, read-out: disease control
[1] = system: Puccinia recondita f. sp. tritici; assay: Puccinia recondita f. sp. tritici / wheat / leaf disc preventative (brown rust)
Excerpt: Puccinia recondita f. sp. tritici/Wheat/Leaf Disc Preventative (Brown Rust) Wheat leaf segments cv. Kanzler were placed on agar in multiwell plates (24-well format) and sprayed with the formulated test compound diluted in water. The leaf disks were inoculated with a spore suspension of the fungus 1 day after application.

[2] = system: Puccinia recondita f. sp. tritici; assay: Puccinia recondita f. sp. tritici / wheat / leaf disc curative (brown rust)
Method: Puccinia recondita f. sp. tritici/Wheat/Leaf Disc Curative (Brown Rust) Wheat leaf segments cv. Kanzler are placed on agar in multiwell plates (24-well format). The leaf segments are inoculated with a spore suspension of the fungus. Plates were stored in darkness at 19° C. and 75% rh. The formulated test compound diluted in water was applied 1 day after inoculation.

[3] = system: Blumeria graminis f. sp. tritici (Erysiphe graminis f. sp. tritici); assay: Blumeria graminis f. sp. tritici / wheat / leaf disc preventative (powdery mildew on wheat)
How it was run: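 Wheat leaf segments (cv. Kanzler) on agar were sprayed with formulated compound in water, inoculated with powdery mildew 1 day later, and kept at 20° C, 60% rh (24 h dark, then 12 h light/12 h dark). Percent disease control versus untreated scored 6-8 days after application; tested at 200 ppm.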

Pyrenophora teres = Pyrenophora teres / barley / leaf disc preventative (net blotch)
Excerpt: Pyrenophora teres/Barley/Leaf Disc Preventative (Net Blotch) Barley leaf segments cv. Hasso were placed on agar in a multiwell plate (24-well format) and sprayed with the formulated test compound diluted in water. The leaf segments were inoculated with a spore suspension of the fungus 2 days after application.

Measured: pest or weed control at 200 ppm

CCN(C)/C=N/c1cc(Br)c(OC2CCC(C)=C(C)CC2)nc1C [Q.231]
≥ 50%: all assays above

CCN(C)/C=N/c1cc(Br)c(OC2Cc3ccc(C)cc3C2)nc1C (stereo not drawn) [Q.243]
≥ 50%: all assays above

CCN(C)/C=N/c1cc(Br)c(OC/C=C\c2cccc(OC)c2)nc1C [Q.023]
≥ 50%: all assays above

CCN(C)/C=N/c1cc(Br)c(OC(C)CCC2CC2)nc1C (stereo not drawn) [Q.357]
≥ 50%: all assays above

CCN(C)/C=N/c1cc(Br)c(OC(C)c2ccc(F)c(F)c2)nc1C (stereo not drawn) [Q.204]
≥ 50%: all assays above

CCN(C)/C=N/c1cc(Br)c(OC2CC(C)=C(C)C2)nc1C [Q.315]
≥ 50%: all assays above

CCN(C)/C=N/c1cc(Br)c(OCc2cccc(C)c2C)nc1C [Q.175]
≥ 50%: all assays above

CCN(C)/C=N/c1cc(Br)c(OC(C)c2cc(-c3ccccc3)no2)nc1C (stereo not drawn) [Q.075]
≥ 50%: all assays above

CCN(C)/C=N/c1cc(Br)c(OC2CCC(C)CC2)nc1C (stereo not drawn) [Q.141]
≥ 50%: all assays above

CCN(C)/C=N/c1cc(I)c(OCc2ccccc2C)nc1C [Q.386]
≥ 50%: all assays above

CCN(C)/C=N/c1cc(Br)c(OC(C)c2cc(C)cc(C)c2)nc1C (stereo not drawn) [Q.203]
≥ 50%: all assays above

CCc1cc(/N=C/N(C)CC)c(C)nc1O[C@H]1CC[C@@H](C(C)C)CC1 [Q.251]
≥ 50%: all assays above

CCN(C)/C=N/c1cc(Br)c(OCCCC(O)CCl)nc1C (stereo not drawn) [Q.059]
≥ 50%: all assays above

C/C=C(\C)CCCOc1nc(C)c(/N=C/N(C)CC)cc1Br [Q.133]
≥ 50%: all assays above

CCN(C)/C=N/c1cc(Br)c(OCCc2ccc(OC)cc2)nc1C [Q.011]
≥ 50%: all assays above

CCN(C)/C=N/c1cc(Br)c(OC(C)Cc2cc(F)cc(F)c2)nc1C (stereo not drawn) [Q.217]
≥ 50%: all assays above

CCN(C)/C=N/c1cc(C)c(O[C@H]2CC[C@@H](C(C)C)CC2)nc1C [Q.186]
≥ 50%: all assays above

CCN(C)/C=N/c1cc(Br)c(OCc2cc(F)cc(F)c2)nc1C [Q.105]
≥ 50%: all assays above

CCN(C)/C=N/c1cc(Br)c(OCCc2ccc(Br)cc2)nc1C [Q.012]
≥ 50%: all assays above

Cc1nc(OC2CCC3(CC2)OCCO3)c(Br)cc1/N=C/N(C)C [Q.054]
≥ 50%: all assays above

CCN(C)/C=N/c1cc(Br)c(OCc2ccc3ncccc3c2)nc1C [Q.209]
≥ 50%: all assays above

CCN(C)/C=N/c1cc(Br)c(OC(C)c2cccc(CCc3ccccc3)c2)nc1C (stereo not drawn) [Q.329]
≥ 50%: all assays above

CCN(C)/C=N/c1cc(OC)c(OC(C)c2cc(F)cc(F)c2)nc1C (stereo not drawn) [Q.214]
≥ 50%: all assays above

CCN(C)/C=N/c1cc(Br)c(OC2CCc3ccc(C(C)=O)cc3C2)nc1C (stereo not drawn) [Q.033]
≥ 50%: all assays above

CCN(C)/C=N/c1cc(C(C)C)c(OC(C)c2cc(F)cc(F)c2)nc1C (stereo not drawn) [Q.280]
≥ 50%: all assays above

CCc1nc(OCc2ccccc2C)c(Br)cc1/N=C/N(C)CC [Q.398]
≥ 50%: all assays above

CCN(C)/C=N/c1cc(Br)c(OCCCc2ccccc2)nc1C [Q.100]
≥ 50%: all assays above

C=C1CCC(Oc2nc(C)c(/N=C/N(C)CC)cc2Br)CC1 [Q.293]
≥ 50%: all assays above

CCN(C)/C=N/c1cc(Br)c(OCC2CC=CCC2)nc1C (stereo not drawn) [Q.029]
≥ 50%: all assays above

CCN(C)/C=N/c1cc(Br)c(OC2CCC(c3ccccc3)CC2)nc1C (stereo not drawn) [Q.082]
≥ 50%: all assays above

CCN(C)/C=N/c1cc(Br)c(OC2CC(C)C(C)C2)nc1C (stereo not drawn) [Q.382]
≥ 50%: all assays above

CCN(C)/C=N/c1cc(Br)c(OC2Cc3ccc(OCc4ccccc4)cc3C2)nc1C (stereo not drawn) [Q.168]
≥ 50%: all assays above

Cc1ccccc1CC(C)Oc1ccc(/N=C/N(C)C(C)C)c(C)n1 (stereo not drawn) [Q.355]
≥ 50%: all assays above

CCN(C)/C=N/c1cc(Br)c(OC2Cc3cc(C)c(C)cc3C2)nc1C [Q.197]
≥ 50%: all assays above

CCN(C)/C=N/c1cc(Br)c(OC2CCN(C(=O)OC(C)(C)C)CC2)nc1C [Q.038]
≥ 50%: all assays above

CC(=O)N1CCC(Oc2nc(C)c(/N=C/N(C)C)cc2Br)CC1 [Q.055]
≥ 50%: all assays above

CCN(C)/C=N/c1cc(I)c(O[C@H]2CC[C@@H](C(C)C)CC2)nc1C [Q.180]
≥ 50%: all assays above

CCN(C)/C=N/c1cc(Br)c(OCc2ccc(Cc3ccccc3)cc2)nc1C [Q.121]
≥ 50%: all assays above

CCN(C)/C=N/c1cc(Br)c(OC2Cc3ccc(C#N)cc3C2)nc1C (stereo not drawn) [Q.376]
≥ 50%: all assays above

CCN(C)/C=N/c1cc(Br)c(OC2CCC(F)(F)CC2)nc1C [Q.375]
≥ 50%: all assays above

CCN(C)/C=N/c1cc(Br)c(OC2CCC(=O)C=C2C)nc1C (stereo not drawn) [Q.282]
≥ 50%: all assays above

CCN(C)/C=N/c1cc(Br)c(OCCC(C)C)nc1C [Q.391]
≥ 50%: all assays above

Reference: US9326513B2, “Fungicidal compositions” (Syngenta Participations AG, priority 2011, dated 2016)
